From US11999727B2 (Tango Therapeutics, Inc., priority 2020, dated 2024) come the findings set out here.

Each structure is given as a SMILES string.

The target of test [1] is T1, PRMT5 (Homo sapiens, UniProt O14744).
T1 construct: purchased Viva (custom protein)
Briefly: PRMT5 biochemical IC50 assay with SAM as cofactor. The conditions noted are these: PRMT5, SAM as cofactor; read-out: SAM IC50.

Test [2] has as its target T1, PRMT5. Briefly: PRMT5 biochemical IC50 assay with no cofactor. The conditions noted are these: PRMT5, no cofactor; read-out: No Cofactor/rel IC50. From the text: Table 1 indicates IC50 values (μM) against PRMT5 for exemplary compounds in the presence of SAM as cofactor, with no cofactor, and with MTA as cofactor, respectively (columns 4-6). […] Ki values can be calculated from the IC50 values as described in the Examples section. As detailed in the Examples section, for the assay performed in the presence of SAM, IC50=Ki×1.5 (Ki=IC50/1.5).

The target of test [3] is T1, PRMT5. In words: PRMT5 biochemical IC50 assay with MTA as cofactor. The conditions noted are these: PRMT5, MTA as cofactor; read-out: MTA IC50.
The test system of test [4] is HAP1 MTAP-intact cell line. In words: SDMA in-cell western assay, HAP1 MTAP-intact. In kind it is cell-based. Particulars: Homo sapiens, HAP1, SDMA in-cell western, HAP1 MTAP-intact; read-out: MTAP HAP1 intact IC50. Summed up:
(§1)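 IC50 values come from SDMA signal quantified by in-cell western in two HAP1 lines, one with native MTAP levels and one lacking MTAP.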

For test [5], the system named is HAP1 MTAP-deleted cell line. In words: SDMA in-cell western assay, HAP1 MTAP-deleted. Particulars: for IC50: Homo sapiens, HAP1, SDMA in-cell western, HAP1 MTAP-deleted, read-out: HAP1 MTAP deleted IC50; for MTAP intact/deleted ratio: IC50 ratio HAP1 MTAP-intact vs HAP1 MTAP-deleted, SDMA in-cell western. In kind it is cell-based. Summed up: as §1
Test [6] has as its system HAP1 MTAP-deleted cell line. Briefly: Viability assay, MTAP-deleted cell line. In kind it is cell-based. Particulars: Homo sapiens, HAP1, viability assay, MTAP-deleted cell line; read-out: HAP1 MTAP deleted viability. From the text: Table 1 additionally indicates IC50 values in a viability assay for the MTAP-deleted cell line (column 10), indicating the effect of treatment with compound on cell survival.

T1 sequence (O14744 whole entry): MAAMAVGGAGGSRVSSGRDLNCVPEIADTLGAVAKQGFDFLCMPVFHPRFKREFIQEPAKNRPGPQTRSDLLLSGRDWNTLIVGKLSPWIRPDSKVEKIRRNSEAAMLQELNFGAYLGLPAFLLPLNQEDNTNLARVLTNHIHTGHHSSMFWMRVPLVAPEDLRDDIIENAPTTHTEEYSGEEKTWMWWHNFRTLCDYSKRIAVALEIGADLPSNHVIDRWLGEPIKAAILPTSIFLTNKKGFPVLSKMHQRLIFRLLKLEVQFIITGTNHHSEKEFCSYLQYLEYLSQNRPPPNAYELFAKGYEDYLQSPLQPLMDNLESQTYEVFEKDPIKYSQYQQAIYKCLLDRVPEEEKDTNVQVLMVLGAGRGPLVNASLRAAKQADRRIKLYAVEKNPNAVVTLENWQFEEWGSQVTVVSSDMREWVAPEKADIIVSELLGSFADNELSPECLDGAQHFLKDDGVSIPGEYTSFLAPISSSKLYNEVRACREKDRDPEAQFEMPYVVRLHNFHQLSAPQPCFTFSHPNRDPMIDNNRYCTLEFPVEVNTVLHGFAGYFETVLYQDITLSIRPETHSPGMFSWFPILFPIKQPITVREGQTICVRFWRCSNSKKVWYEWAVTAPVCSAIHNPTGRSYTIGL
T1 sequence (Q9BQA1 whole entry partner): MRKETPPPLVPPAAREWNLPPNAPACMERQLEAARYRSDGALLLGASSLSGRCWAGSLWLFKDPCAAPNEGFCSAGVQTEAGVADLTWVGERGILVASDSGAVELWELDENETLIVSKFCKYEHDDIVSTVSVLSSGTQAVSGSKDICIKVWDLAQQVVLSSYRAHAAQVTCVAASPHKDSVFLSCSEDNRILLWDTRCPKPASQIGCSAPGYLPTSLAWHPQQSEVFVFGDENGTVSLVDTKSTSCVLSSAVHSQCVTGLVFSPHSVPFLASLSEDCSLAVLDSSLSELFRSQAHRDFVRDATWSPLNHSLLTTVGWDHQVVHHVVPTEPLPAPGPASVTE

Take `CCc1cc(NC(=O)C(=O)N2C[C@@H](C)CC[C@@H]2c2ccc3nn(C4CC(C)(C)N(C)C(C)(C)C4)cc3c2)cnc1N` (racemic) [Compound 1140, N-(6-Amino-5-ethyl-3-pyridyl)-2-oxo-2-[rac-(2R,5S)-5-methyl-2-[2-(1,2,2,6,6-pentamethyl-4-piperidyl)indazol-5-yl]-1-piperidyl]acetamide]: the IC50 was less than 50 nM at PRMT5 [1]; less than 50 nM on PRMT5 [2]; less than 50 nM at PRMT5 [3]; less than 100 nM in test [4]; less than 100 nM in test [5]; less than 1000 nM in test [6]. Also, in test [5], the MTAP intact/deleted ratio entry was “A (an IC50 ratio greater than or equal to 10 fold)”.
Take `COc1ncc(NC(=O)C(=O)N2C[C@@H](C)CC[C@@H]2c2ccc3nn([C@@H]4CCN(C)C4)cc3c2)cc1C(N)=O` (racemic) [Compound 1141, 2-Methoxy-5-[[2-oxo-2-[rac-(2R,5S)-5-methyl-2-[2-[rac-(3R)-1-methylpyrrolidin-3-yl]indazol-5-yl]-1-piperidyl]acetyl]amino]pyridine-3-carboxamide]: the IC50 on PRMT5 [1] is 50 to 500 nM; on PRMT5 [2], less than 50 nM; on PRMT5 [3], less than 50 nM; in test [4] it was 100 to 1000 nM; in test [5] it was less than 100 nM; in test [6] it was less than 1000 nM. Moreover, in test [5], the MTAP intact/deleted ratio result is on record as “A (an IC50 ratio greater than or equal to 10 fold)”.
As to `Cc1cc(NC(=O)C(=O)N2C[C@H](C)CC[C@H]2c2ccc3scc(CCN(C)C)c3c2)cnc1N` (racemic) [Compound 1142, N-(6-amino-5-methyl-3-pyridyl)-2-[(2S,5R)-2-[3-[2-(dimethylamino)ethyl]benzothiophen-5-yl]-5-methyl-1-piperidyl]-2-oxo-acetamide], the IC50 at PRMT5 [1] was 50 to 500 nM; on PRMT5 [2], 50 to 500 nM; at PRMT5 [3], less than 50 nM; in test [4] it was less than 100 nM; in test [5], less than 100 nM; in test [6], less than 1000 nM. The MTAP intact/deleted ratio result in test [5] is “B (an IC50 ratio greater than or equal to 3 fold but lower than 10 fold)”.
Consider `Cc1cc(NC(=O)C(=O)N2C[C@H](C)CC[C@H]2c2cccc(C3CCN(C)CC3)c2)cnc1N` (racemic) [Compound 1149, N-(6-amino-5-methylpyridin-3-yl)-2-(5-methyl-2-(3-(1-methylpiperidin-4-yl)phenyl)piperidin-1-yl)-2-oxoacetamide], for which the IC50 is 50 to 500 nM at PRMT5 [1]; 50 to 500 nM at PRMT5 [2]; less than 50 nM on PRMT5 [3]; 100 to 1000 nM in test [4]; less than 100 nM in test [5]; less than 1000 nM in test [6]. Besides, the MTAP intact/deleted ratio result in test [5] is “A (an IC50 ratio greater than or equal to 10 fold)”.
For `CCc1cc(NC(=O)C(=O)N2C[C@@H](C)CC[C@@H]2c2ccc(N3CCN(C(C)C)CC3)c(C)c2)cnc1N` (racemic) [Compound 1163, N-(6-Amino-5-ethyl-3-pyridyl)-2-oxo-2-[rac-(2R,5S)-2-[4-(4-isopropylpiperazin-1-yl)-3-methyl-phenyl]-5-methyl-1-piperidyl]acetamide], the IC50 at PRMT5 [1] was less than 50 nM; at PRMT5 [2] it was less than 50 nM; at PRMT5 [3] it was less than 50 nM; in test [4] it was 100 to 1000 nM; in test [5], less than 100 nM; in test [6] it was less than 1000 nM. In addition, the MTAP intact/deleted ratio entry in test [5] is given as “A (an IC50 ratio greater than or equal to 10 fold)”.
As to `CCc1cc(NC(=O)C(=O)N2C[C@@H](C)CC[C@@H]2c2ccc(N3C[C@H]4CCN(C)C[C@H]4C3)cc2)cnc1N` (racemic) [Compound 1167, N-(6-amino-5-ethyl-3-pyridyl)-2-oxo-2-[rac-(2R,5S)-5-methyl-2-[4-[rac-(3aS,7aS)-5-methyl-3,3a,4,6,7,7a-hexahydro-1H-pyrrolo[3,4-c]pyridin-2-yl]phenyl]-1-piperidyl]acetamide], the IC50 on PRMT5 [1] is less than 50 nM; on PRMT5 [2] it was less than 50 nM; at PRMT5 [3], less than 50 nM; in test [4], 100 to 1000 nM; in test [5], less than 100 nM; in test [6], less than 1000 nM. For the same compound, the MTAP intact/deleted ratio result in test [5] is on record as “A (an IC50 ratio greater than or equal to 10 fold)”.
As for `COc1ncc(NC(=O)C(=O)N2C[C@@H](C)CC[C@@H]2c2ccc3sc([C@H]4CCN(C)C[C@@H]4C)nc3c2)cc1C(N)=O` (racemic) [Compound 1168, 2-methoxy-5-[[2-oxo-2-[rac-(2R,5S)-5-methyl-2-[2-[rac-(3R,4S)-1,3-dimethyl-4-piperidyl]-1,3-benzothiazol-5-yl]-1-piperidyl]acetyl]amino]pyridine-3-carboxamide], the IC50 was less than 50 nM at PRMT5 [1]; less than 50 nM at PRMT5 [2]; less than 50 nM on PRMT5 [3]; less than 100 nM in test [4]; less than 100 nM in test [5]; less than 1000 nM in test [6]. The MTAP intact/deleted ratio result in test [5] is given as “A (an IC50 ratio greater than or equal to 10 fold)”.
`CCc1cc(NC(=O)C(=O)N2C[C@@H](C)[C@H](OC)C[C@@H]2c2cccc(OCCN(C)C)c2)cnc1N` (racemic) [Compound 1172, N-(6-amino-5-ethyl-3-pyridyl)-2-oxo-2-[rac-(2R,4R,5R)-2-[3-[2-(dimethylamino)ethoxy]phenyl]-4-methoxy-5-methyl-1-piperidyl]acetamide]: the IC50 at PRMT5 [1] was 50 to 500 nM; on PRMT5 [2], 50 to 500 nM; on PRMT5 [3], less than 50 nM; in test [4], 100 to 1000 nM; in test [5], less than 100 nM; in test [6], less than 1000 nM. Besides, in test [5], the MTAP intact/deleted ratio entry is reported as “A (an IC50 ratio greater than or equal to 10 fold)”.
As for `CCc1nc2cc([C@@H]3CC[C@@H](C)CN3C(=O)C(=O)Nc3cnc(N)c(C)c3)ccc2s1` (racemic) [Compound 1184, N-(6-amino-5-methylpyridin-3-yl)-2-(2-(2-ethylbenzo[d]thiazol-5-yl)-5-methylpiperidin-1-yl)-2-oxoacetamide], the IC50 on PRMT5 [1] is 50 to 500 nM; on PRMT5 [2], 50 to 500 nM; on PRMT5 [3], 50 to 500 nM; in test [4] it was 100 to 1000 nM; in test [5], less than 100 nM; in test [6] it was less than 1000 nM. The MTAP intact/deleted ratio result in test [5] is reported as “A (an IC50 ratio greater than or equal to 10 fold)”.
Regarding `COc1ncc(NC(=O)C(=O)N2C[C@@H](C)CC[C@@H]2c2ccc3sc([C@H]4CCN(C)C[C@H]4C)nc3c2)cc1C(N)=O` (racemic) [Compound 1185, 2-methoxy-5-[[2-oxo-2-[rac-(2R,5S)-5-methyl-2-[2-[rac-(3S,4S)-1,3-dimethyl-4-piperidyl]-1,3-benzothiazol-5-yl]-1-piperidyl]acetyl]amino]pyridine-3-carboxamide], the IC50 at PRMT5 [1] is less than 50 nM; on PRMT5 [2] it was less than 50 nM; at PRMT5 [3], less than 50 nM; in test [4], less than 100 nM; in test [5], less than 100 nM; in test [6], less than 1000 nM. For the same compound, the MTAP intact/deleted ratio entry in test [5] is recorded as “A (an IC50 ratio greater than or equal to 10 fold)”.
Consider `CCc1cc(NC(=O)C(=O)N2C[C@@H](C)CC[C@@H]2c2ccc(N3CCN(C)CC3)cc2)cnc1N` (racemic) [Compound 1209, rac-N-(6-Amino-5-ethyl-3-pyridyl)-2-[(2S,5R)-5-methyl-2-[4-(4-methylpiperazin-1-yl)phenyl]-1-piperidyl]-2-oxo-acetamide], for which the IC50 is 50 to 500 nM on PRMT5 [1]; 50 to 500 nM at PRMT5 [2]; less than 50 nM at PRMT5 [3]; 100 to 1000 nM in test [4]; less than 100 nM in test [5]; less than 1000 nM in test [6]. In addition, the MTAP intact/deleted ratio entry in test [5] was “A (an IC50 ratio greater than or equal to 10 fold)”.
`Cc1cc(NC(=O)C(=O)N2C[C@H](C)CC[C@H]2c2cccc(N3CCN(C)CC3)c2)cnc1N` (racemic) [Compound 1223, N-(6-amino-5-methylpyridin-3-yl)-2-(5-methyl-2-(3-(4-methylpiperazin-1-yl)phenyl)piperidin-1-yl)-2-oxoacetamide]: the IC50 at PRMT5 [1] was 50 to 500 nM; on PRMT5 [2], 50 to 500 nM; on PRMT5 [3], less than 50 nM; in test [4], 100 to 1000 nM; in test [5] it was less than 100 nM; in test [6], less than 1000 nM. Besides, the MTAP intact/deleted ratio entry in test [5] was “A (an IC50 ratio greater than or equal to 10 fold)”.
On to `CCc1cc(NC(=O)C(=O)N2CC(C)CCC2c2ccc3sc(C4CCN(C)CC4C)nc3c2)cnc1N` (racemic) [Compound 1227, N-(6-amino-5-ethyl-3-pyridyl)-2-oxo-2-[rac-(2R,5S)-5-methyl-2-[2-[rac-(3S,4R)-1,3-dimethyl-4-piperidyl]-1,3-benzothiazol-5-yl]-1-piperidyl]acetamide], for which the IC50 at PRMT5 [1] was less than 50 nM; on PRMT5 [2], less than 50 nM; on PRMT5 [3] it was less than 50 nM; in test [4], less than 100 nM; in test [5], less than 100 nM; in test [6] it was less than 1000 nM. For the same compound, the MTAP intact/deleted ratio entry in test [5] is given as “A (an IC50 ratio greater than or equal to 10 fold)”.
